Assay results reported in article PMC4735555, “Crystal structure of the N-myristoylated lipopeptide-bound MHC class I complex” (Nature Communications, 2016).

Tests used:
[1] = tested on: 2N5.1; conditions: cited from earlier work
Source text: For example, human and simian immunodeficiency viruses (HIV and SIV) borrow host-derived N-myristoyltransferase and its substrate myristoyl-CoA, to couple a 14-carbon saturated fatty acid (myristic acid) to the N-terminal glycine residue of the Nef protein. […] To obtain an insight into its molecular identity, we generated several hundred monoclonal antibodies that recognized rhesus PBMCs and tested their abilities to block the presentation of C14nef5 to 2N5.1. […] The myristoyl group of the lipopeptide adopted a U-shaped configuration and fit perfectly with the extended B pocket. Furthermore, inter- and intramolecular VDW forces established throughout the acyl chain synergistically reinforced its stable binding to the B pocket. These structural f ... || (+ 1 further places)

[2] = tested on: Mamu-B*098; assay: Biolayer interferometry binding to β2m-linked Mamu-B*098; parameters: species or system rhesus macaque; conditions: Octet RED96; biotinylated β2m-linked Mamu-B*098; lipopeptide 10 μM, 45 min, then 30 min without; 20 mM Tris-HCl pH 7.5, 150 mM NaCl, 2% DMSO; 30 °C; representative of three independent experiments
Source text: (§1) Single-chain MHC proteins in which β2m was linked via a Gly-Ser linker (GGGGSGGSGSGGGSS) to the ectodomain of either Mamu-B*098 or Mamu-A*02, followed by a biotinylation sequence peptide (LHHILDAQKMVWNHR), were also expressed in E. coli and were purified in a similar manner to the trimer complex of Mamu-B*098, β2m and C14nef5. The β2m-linked Mamu-B*098 protein was refolded without C14nef5, whereas the β2m-linked Mamu-A*02 protein was refolded in the presence of the YY9 peptide (YTSGPGIRY). These recombinant proteins (3 mg) were biotinylated by being incubated for 12 h at 20 °C with 2 μg of BirA enzyme (Sigma-Aldrich, St Louis, MO) in a biotinylation buffer containing 100 mM Tris-HCl pH 8.0, 5 mM MgCl2, 4.5 mM ATP and 4 mM D-biotin, and were purified by size-exclusion chromatography.
(§2) The binding of ligands to MHC class I molecules was analysed using the Octet RED96 system equipped with a streptavidin-conjugated biosensor (Pall ForteBio, Menlo Park, CA) according to the manufacturer's instructions. Biotinylated β2m-linked Mamu-B*098 and Mamu-A*02 proteins were immobilized on the sensor tip surface with a signal magnitude of ∼5.0 nm. […] After reference subtraction, binding signals were analysed using the BIAevaluation 3.1 software. […]

[3] = tested on: 2N5.1 (plate-coated Mamu-B*098); assay: T-cell assay with plate-coated Mamu-B*098, IFN-γ release by 2N5.1; type: cell-based, rhesus macaque; conditions: 10 μg MHC protein, 1 μg lipopeptide loaded overnight 37 °C; 5 × 10^4 T cells per well, 24 h; IFN-γ ELISA
Source text: as §1
Streptavidin-coated 96-well plates (Thermo Scientific, Hudson, NH) were overlaid with 10 μg of the biotinylated β2m-linked Mamu-B*098 and Mamu-A*02 proteins, and lipopeptide Ags (1 μg) were loaded by an overnight incubation at 37 °C. The wells were then washed extensively and T cells (5 × 10^4 per well) were added. After a 24-h incubation at 37 °C, aliquots of the culture supernatants were collected and the amount of IFN-γ released into the medium was measured by a human/monkey IFN-γ enzyme-linked immunosorbent assay kit (Mabtech, Nacka Strand, Sweden).

[4] = tested on: 2N5.1 (Mamu-B*098 Cys167 to Ser mutant); assay: Presentation of C14nef5 to 2N5.1 by the cysteine to serine (position 167) mutant of Mamu-B*098; type: cell-based, rhesus macaque; conditions: data not shown
[5] = tested on: 2N5.1 TCR; assay: SPR binding of soluble 2N5.1 TCR to antigen-loaded Mamu-B*098; parameters: species or system rhesus macaque; conditions: in words; Biacore 3000, 30 °C; soluble 2N5.1 TCR αβ dimer; lipopeptide-loaded Mamu-B*098 immobilized; pH 7.5
Source text: as §1
TCR dimers were generated by the disulfide-linked TCR method. […]
as §2, with “instructions.” for “instructions. Biotinylated β2m-linked Mamu-B*098 and Mamu-A*02 proteins were immobilized on the sensor tip surface with a signal magnitude of ∼5.0 nm.”

C14-Gly-Gly-Ala-Ile-Ser [C14nef5, N-myristoylated 5-mer peptide (C14-Gly-Gly-Ala-Ile-Ser; C14nef5) derived from the SIV Nef protein]
antigenic activity, C14nef5 versus its Ser to Thr mutant [1]: virtually identical antigenic activities | recognition by rhesus macaque CD8+ CTL line 2N5.1 [1]: specifically recognizes | requirement of PBMCs for recognition by 2N5.1 ([1]; irradiated PBMCs): requires the presence of irradiated peripheral blood mononuclear cells (PBMCs) | physical interaction with immobilized Mamu-B*098 (biolayer interferometry) [2]: demonstrated for Mamu-B*098 | IFN-γ response of 2N5.1 to plate-coated Mamu-B*098 with lipopeptide Ag [3]: sufficient for stimulating 2N5.1 to produce IFN-γ | effect of Cys167 to Ser mutation on ability of Mamu-B*098 to present C14nef5 to 2N5.1 [4]: affected neither the overall secondary structure nor the ability of Mamu-B*098 to present C14nef5 to 2N5.1 | interaction of 2N5.1 TCR with lipopeptide-loaded Mamu-B*098 (SPR) [5]: high-affinity interaction
